# Results reported in patent US8933245B2, “Preservation of ergothioneine” (ELC Management LLC, priority 2009, dated 2015).
# Values joined by “and” are separate entries in the source; they are usually repeats but may differ in a detail not shown here. Equal entries are not always repeated.
# How the values were obtained:
# [1] = Formation of fishy amine odor by boiling ergothioneine with sodium hydroxide or other components; type: physicochemical
# Procedure: This became the assay system used to test agents and procedures for reduction or prevention of the odor.
# Four samples of a 5 ml ergothioneine solution at 0.1% (w/v) were prepared in glass test tubes with screw caps. To the first was added 5 ml of water, to the second 5 ml of 0.2% (w/v) sodium metabisulfite, to the third 4 ml of water and 1 ml of 1N sodium hydroxide, and to the fourth 5 ml of 0.2% (w/v) citric acid. […] The samples were boiled for 10 minutes and each one was smelled.
# This allowed the testing of methods to inhibit the formation of the odor and to suppress the odor after formation.
# [2] = Preventing trimethylamine odor by addition of compounds before heating ergothioneine with sodium hydroxide; type: physicochemical; conditions: for % EGT (w/v): boiled 10 minutes, HPLC
# Procedure: Samples were prepared in glass tubes with screw caps with about 0.05% (w/v) ergothioneine in water, a test sample, at the indicated concentration, and 0.1N NaOH (except for the first tube, in which NaOH was omitted as a negative control). The pH of each sample was determined by litmus paper, and then the tubes capped and placed in a boiling water bath for 10 minutes. The tubes were then cooled to room temperature, and then each one was uncapped and smelled by three testers, each of whom scored the odor. The scores were converted to a scale of 0 (no odor) to 3 (strong fishy trimethylamine odor) and then averaged.
# [3] = Stability of ergothioneine during storage with and without citric acid (HPLC); type: physicochemical; conditions: percent of starting concentration, 2 mM in water; for % EGT with citric acid: 0.2% citric acid
# Procedure: The samples were stored at 4° C., 25° C. or 40° C. for 30 or 60 days and then analyzed by HPLC. Each vial was used once and then discarded. Each measurement was made in triplicate and the results averaged. A standard curve of ergothioneine concentration was constructed at each time point to quantify the amount of ergothioneine in each vial. Each amount in Table 2 is expressed as percentage of the amount measured in the initial sample at the start of the experiment.
# [4] = Formation of yellow addition product of ergothioneine and sodium metabisulfite; type: physicochemical; conditions: 1.25% ergothioneine and 5% sodium metabisulfite; cap removed, shaken, ambient air bubbled; after 6 to 7 minutes
# [5] = as above; type: physicochemical
# Procedure: The vials were sealed and mixing the samples was avoided. The samples were incubated and color development observed. The solutions were examined at 1 hour, and the optical density at 405 nm was measured at 2 hours (Table 9).
# The cap was removed and the solution was then shaken for 3 to 4 minutes and ambient air was bubbled through it to drive out the dissolved sulfur dioxide gas. […] Therefore the loss of ergothioneine after addition of sodium metabisulfite is due to formation of an addition product which is reversible, and the ergothioneine is not permanently lost.
# [6] = Stability of ergothioneine solution at acidic pH on heating; type: physicochemical; conditions: 0.05% solution, pH 5, heating 40 C for 60 days
# Description: It has been observed that ergothioneine is quite stable at acidic pH. At pH 5 a 0.05% solution remains within 1% of its concentration after heating 40 C for 60 days. However, the reports of its stability in alkali are mixed in the literature. See, for example, Philip Hartman. “Ergothioneine as antioxidant”, Methods Enzymol. 186:310-318, 1990 at p. 311 (“ . . . the sulfur atom of Ergothioneine is remarkably stable to alkali”); H. Heath and G. Toennies. “The preparation and properties of Ergothioneine disulphide”, J. Chem. Soc. pages 204-210, (1958) at p. 204 (“the sulphur is completely unaffected by boiling 50% aqueous potassium hydroxide.”); Oxis International, Inc. Compound Monograph “L-Ergothioneine. Revision III”, at p. […] “Synthesis of L-(+)-Ergothioneine”, J. Org. Chem. 60:6296-6301, 1995 at p. 6296 (“this explains its stability toward oxidative dimerization”).
# [7] = cited from earlier work; for Ka: acid listed with one ionized form
# [8] = test sample 0.01%, about 0.05% ergothioneine, 0.1N NaOH, litmus paper
# [9] = test sample 0.05%, about 0.05% ergothioneine, 0.1N NaOH, litmus paper
# [10] = test sample 0.2%, about 0.05% ergothioneine, 0.1N NaOH, litmus paper
# [11] = ergothioneine 1.25%, sodium metabisulfite 5.0%
# [12] = ergothioneine 1.25%, sodium metabisulfite 7.5%
# [13] = ergothioneine 1.25%, sodium metabisulfite 10%
# [14] = ergothioneine 1.25%, sodium metabisulfite 12.5%
# [15] = ergothioneine 1.25%, sodium metabisulfite 15%
# [16] = ergothioneine 1.25%, sodium metabisulfite 17.5%
# [17] = ergothioneine 1.25%, sodium metabisulfite 20%
# [18] = ergothioneine 1.25%, sodium metabisulfite 22.5%
# [19] = ergothioneine 1.25%, sodium metabisulfite 25%
# [20] = ergothioneine 1.25%, sodium metabisulfite […]
# [21] = ergothioneine […], sodium metabisulfite 0
compound,measurement,setting,value
[Na+].[OH-] [sodium hydroxide],pH,[1],approximately 10
O=C1O[C@H]([C@@H](O)CO)C(O)=C1O [ascorbic acid],% EGT (w/v),"[2]; test sample 0.01%, 0.1N NaOH",0.050 % (w/v)
same,pH,[2]; [8],10.5
same,% EGT (w/v),"[2]; test sample 0.05%, 0.1N NaOH",0.050 % (w/v)
same,pH,[2]; [9],10.5
same,% EGT (w/v),"[2]; test sample 0.2%, 0.1N NaOH",0.047 % (w/v)
same,pH,[2]; [10],5
Cl [Hydrochloric acid],% EGT (w/v),"[2]; test sample 0.0001%, 0.1N NaOH",0.050 % (w/v)
same,pH,"[2]; test sample 0.0001%, about 0.05% ergothioneine, 0.1N NaOH, litmus paper",11.5
same,% EGT (w/v),"[2]; test sample 0.01%, 0.1N NaOH",0.050 % (w/v)
same,pH,[2]; [8],10
C[N+](C)(C)[C@@H](Cc1c[nH]c(=S)[nH]1)C(=O)[O-] [ergothioneine],% EGT with citric acid,"[3]; 4° C., 30 days",101.6%
same,% EGT with citric acid,"[3]; 4° C., 60 days",105.8%
same,% EGT with citric acid,"[3]; 25° C., 30 days",101.5%
same,% EGT with citric acid,"[3]; 25° C., 60 days",102.2%
same,% EGT with citric acid,"[3]; 40° C., 30 days",101.1%
same,% EGT with citric acid,"[3]; 40° C., 60 days",99.6%
same,% EGT without citric acid,"[3]; 4° C., 30 days",96.1%
same,% EGT without citric acid,"[3]; 4° C., 60 days",106.5%
same,% EGT without citric acid,"[3]; 25° C., 30 days",84.0%
same,% EGT without citric acid,"[3]; 25° C., 60 days",100.5%
same,% EGT without citric acid,"[3]; 40° C., 30 days",86.3%
same,% EGT without citric acid,"[3]; 40° C., 60 days",99.8%
same,color of solution after driving out sulfur dioxide,[4],nearly colorless with a yellow tinge
same,color of solution,"[5]; 1.25% ergothioneine and 5% sodium metabisulfite, one week at room temperature in a capped tube",intense lemon yellow
same,Color description at 1 h,[5]; [11],Near colorless
same,OD405 at 2 hr,[5]; [11],0.104
same,Color description at 1 h,[5]; [12],Yellow tinge
same,OD405 at 2 hr,[5]; [12],0.186
same,Color description at 1 h,[5]; [13],Slight yellow
same,OD405 at 2 hr,[5]; [13],0.265
same,Color description at 1 h,[5]; [14],Light yellow
same,OD405 at 2 hr,[5]; [14],0.456
same,Color description at 1 h,[5]; [15],Yellow
same,OD405 at 2 hr,[5]; [15],0.593
same,Color description at 1 h,[5]; [16],Yellow
same,OD405 at 2 hr,[5]; [16],0.966
same,Color description at 1 h,[5]; [17],Light lemon yellow
same,OD405 at 2 hr,[5]; [17],1.993
same,Color description at 1 h,[5]; [18],Intense lemon yellow
same,OD405 at 2 hr,[5]; [18],2.873
same,Color description at 1 h,[5]; [19],Intense lemon yellow
same,OD405 at 2 hr,[5]; [19],3.126
same,Color description at 1 h,[5]; [20],Colorless
same,OD405 at 2 hr,[5]; [20],0.044
same,Color description at 1 h,[5]; [21],Colorless
same,OD405 at 2 hr,[5]; [21],0.004
same,change of concentration,[6],≤ 1%
O=S([O-])S(=O)(=O)[O-].[Na+].[Na+] [sodium metabisulfite],time to apparent reduction in the amount of ergothioneine (HPLC),"[5]; after addition of sodium metabisulfite, room temperature without boiling",≤ 10 min
same,% EGT (w/v),"[2]; test sample 0.01%, 0.1N NaOH",0.044 % (w/v)
same,pH,[2]; [8],10
same,% EGT (w/v),"[2]; test sample 0.05%, 0.1N NaOH",0.037 % (w/v)
same,pH,[2]; [9],9.5
same,% EGT (w/v),"[2]; test sample 0.2%, 0.1N NaOH",0.029 % (w/v)
same,pH,[2]; [10],6.5
same,pH,"[1]; litmus paper, before boiling, 5 ml 0.1% ergothioneine plus 5 ml addition",5
O=S(O)O [sulfurous acid],Ka (1),[7]; first ionized form,1.41E−2
same,Ka (2),[7]; second ionized form,6.31E−8
O=C(O)CC(O)(CC(=O)O)C(=O)O [citric acid],pH,[2],8 and 10
same,% EGT (w/v),"[2]; test sample 0.01%, 0.1N NaOH",0.052 % (w/v)
same,% EGT (w/v),"[2]; test sample 0.05%, 0.1N NaOH",0.053 % (w/v)
same,% EGT (w/v),"[2]; test sample 0.2%, 0.1N NaOH",0.054 % (w/v)
same,pH,[1],5
OB(O)O [boric acid],pH,[2],8.5 and 10 and 10.5
same,% EGT (w/v),"[2]; test sample 0.01%, 0.1N NaOH",0.050 % (w/v)
same,% EGT (w/v),"[2]; test sample 0.05%, 0.1N NaOH",0.051 % (w/v)
same,% EGT (w/v),"[2]; test sample 0.2%, 0.1N NaOH",0.052 % (w/v)
O=P(O)(O)O [phosphoric acid],% EGT (w/v),"[2]; test sample 0.01%, 0.1N NaOH",0.052 % (w/v)
same,% EGT (w/v),"[2]; test sample 0.05%, 0.1N NaOH",0.054 % (w/v)
same,% EGT (w/v),"[2]; test sample 0.2%, 0.1N NaOH",0.058 % (w/v)
CCCCC(=O)O [pentanoic acid],Ka,[7],3.31E−5
CCCCCCC(=O)O [heptanoic acid],Ka,[7],1.29E−5
O=c1[nH]c(=O)c2[nH]c(=O)[nH]c2[nH]1 [uric acid],Ka,[7],1.29E−4
CC(=O)O [acetic acid],Ka,[7],1.74E−5
same,% EGT (w/v),"[2]; test sample 0.01%, 0.1N NaOH",0.050 % (w/v)
same,pH,[2]; [8],10.5
same,% EGT (w/v),"[2]; test sample 0.05%, 0.1N NaOH",0.052 % (w/v)
same,pH,[2]; [9],8
same,% EGT (w/v),"[2]; test sample 0.2%, 0.1N NaOH",0.052 % (w/v)
same,pH,[2]; [10],4
